According to ChEMBL document CHEMBL1135013, “A simple and rapid method for the differentiation of C-13 manoyl oxide epimers in biologically important samples using GC-MS analysis supported with NMR spectroscopy and computational chemistry results” (2002):
Converted amounts (≈) assume the structure as drawn.

Tests used:
Type in all cases: functional
Escherichia coli = assay: Compound (isolated from leaves of Cistus monspeliensis) was tested for antimicrobial activity against Escherichia coli (ATCC 25922)
Staphylococcus hominis = assay: Compound (isolated from leaves of Cistus monspeliensis) was tested for antimicrobial activity against Staphylococcus hominis (ATCC 27844)
Staphylococcus aureus = assay: Compound (isolated from leaves of Cistus monspeliensis) was tested for antimicrobial activity against Staphylococcus aureus (ATCC 6538)
[1] = system: Staphylococcus epidermidis; assay: Compound (isolated from leaves of Cistus monspeliensis) was tested for antimicrobial activity against Staphylococcus epidermidis (ATCC 12228)
Klebsiella pneumoniae = assay: Compound (isolated from leaves of Cistus monspeliensis) was tested for antimicrobial activity against Klebsiella pneumoniae (ATCC 13883)

## CN[C@@H]1[C@H](O[C@H]2[C@H](O[C@H]3[C@H](O)[C@@H](O)[C@H](N=C(N)N)[C@@H](O)[C@@H]3N=C(N)N)O[C@@H](C)[C@]2(O)C=O)O[C@@H](CO)[C@H](O)[C@H]1O [STREPTOMYCIN]
Escherichia coli
  MIC50: 0.6 µg/mL (≈ 1.03 µM)
Staphylococcus hominis
  MIC50: 2.1 µg/mL (≈ 3.61 µM)
Staphylococcus aureus
  MIC50: 2.1 µg/mL (≈ 3.61 µM)
[1]
  MIC50: 2.1 µg/mL (≈ 3.61 µM)
Klebsiella pneumoniae
  MIC50: 0.6 µg/mL (≈ 1.03 µM)

## C=C[C@@]1(C)CC[C@@H]2[C@](C)(CCC3C(C)(C)CCC[C@]32C)O1 (some centres not stated)
Escherichia coli
  MIC50: > 2000 µg/mL
Klebsiella pneumoniae
  MIC50: > 2000 µg/mL
